Assay results taken from ChEMBL document CHEMBL1201862, “PubChem BioAssay data set” (2004).
Activity calls are given as the source filed them.

Assays:
[1] = molecular target: Potassium voltage-gated channel subfamily KQT member 2 (Rattus norvegicus, UniProt O88943); assay: blockers of KCNQ2 channel current – cell-based, automated electrophysiology, set II, rat KCNQ2, dose response (AID 588637); format: functional
Genome polyprotein = Genome polyprotein (dengue virus type 2, UniProt P29990); assay: flavivirus cap methylation enzyme inhibition – biochemical, confirmation dose response, primary screen (AID 588689); format: functional
Genome polyprotein, sequence (P29990 2492-3391 limits assumed): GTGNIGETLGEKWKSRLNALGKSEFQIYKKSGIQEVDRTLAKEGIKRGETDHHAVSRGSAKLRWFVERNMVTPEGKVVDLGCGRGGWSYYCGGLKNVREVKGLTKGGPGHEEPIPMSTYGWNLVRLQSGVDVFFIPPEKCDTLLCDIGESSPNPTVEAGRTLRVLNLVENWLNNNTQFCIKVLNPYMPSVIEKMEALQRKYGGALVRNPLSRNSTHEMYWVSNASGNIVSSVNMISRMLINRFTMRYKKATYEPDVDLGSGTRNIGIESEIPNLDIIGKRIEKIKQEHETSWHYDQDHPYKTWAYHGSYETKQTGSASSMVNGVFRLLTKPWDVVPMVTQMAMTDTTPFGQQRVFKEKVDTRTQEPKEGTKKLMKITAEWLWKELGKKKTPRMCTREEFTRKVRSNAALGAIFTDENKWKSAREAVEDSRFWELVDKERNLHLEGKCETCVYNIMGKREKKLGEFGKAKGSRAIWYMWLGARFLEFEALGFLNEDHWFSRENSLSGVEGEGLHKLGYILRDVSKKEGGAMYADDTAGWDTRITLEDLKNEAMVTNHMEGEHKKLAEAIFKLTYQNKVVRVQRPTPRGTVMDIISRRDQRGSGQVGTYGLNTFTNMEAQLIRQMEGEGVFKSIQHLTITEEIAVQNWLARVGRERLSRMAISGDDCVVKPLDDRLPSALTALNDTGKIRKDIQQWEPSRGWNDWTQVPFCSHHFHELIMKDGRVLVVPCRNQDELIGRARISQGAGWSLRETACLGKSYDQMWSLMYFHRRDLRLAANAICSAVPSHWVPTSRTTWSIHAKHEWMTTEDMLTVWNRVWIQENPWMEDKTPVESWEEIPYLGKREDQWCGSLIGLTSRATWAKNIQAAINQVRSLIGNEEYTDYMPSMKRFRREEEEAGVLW

[2] = molecular target: T1, Corticotropin-releasing factor receptor 2/Corticotropin-releasing factor-binding protein (Homo sapiens, UniProt P24387+Q13324); assay: Dose Response confirmation of uHTS hits for small molecule antagonists of the CRF-binding protein and CRF-R2 receptor complex.; format: functional; conditions: read-out: IC50_Mean
T1 sequence (Q13324 whole entry): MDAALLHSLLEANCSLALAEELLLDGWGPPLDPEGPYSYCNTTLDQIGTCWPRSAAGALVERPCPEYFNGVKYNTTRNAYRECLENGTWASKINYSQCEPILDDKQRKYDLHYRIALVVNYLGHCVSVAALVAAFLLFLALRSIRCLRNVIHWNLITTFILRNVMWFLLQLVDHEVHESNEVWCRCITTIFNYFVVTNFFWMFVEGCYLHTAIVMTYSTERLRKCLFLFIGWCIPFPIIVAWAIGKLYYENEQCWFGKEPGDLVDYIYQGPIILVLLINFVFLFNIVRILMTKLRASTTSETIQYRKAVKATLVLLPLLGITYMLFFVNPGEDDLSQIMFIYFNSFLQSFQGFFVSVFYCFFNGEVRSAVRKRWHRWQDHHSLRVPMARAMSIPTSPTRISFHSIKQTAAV
T1 sequence (P24387 whole entry): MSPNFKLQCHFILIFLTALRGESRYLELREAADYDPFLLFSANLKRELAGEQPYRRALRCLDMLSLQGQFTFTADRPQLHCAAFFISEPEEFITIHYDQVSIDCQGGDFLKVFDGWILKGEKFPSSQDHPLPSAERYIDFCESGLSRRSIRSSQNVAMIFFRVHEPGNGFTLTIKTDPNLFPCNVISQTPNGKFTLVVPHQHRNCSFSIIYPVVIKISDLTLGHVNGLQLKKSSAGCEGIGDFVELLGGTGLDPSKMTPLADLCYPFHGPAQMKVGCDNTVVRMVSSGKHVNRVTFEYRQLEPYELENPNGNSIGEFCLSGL

[3] = molecular target: T1, Corticotropin-releasing factor receptor 2/Corticotropin-releasing factor-binding protein; assay: activators of CRF receptor 2 with binding protein – uHTS hits, confirmation (AID 602473); format: functional; conditions: read-out: EC50_Mean
[4] = molecular target: T2, Small ubiquitin-related modifier 2 (Homo sapiens, UniProt P61956); assay: disruption of SUMO2 interaction with SIM peptide – biochemical, fluorescence polarization, uHTS hits, selectivity assay for SUMO1 interaction inhibitor project, dose response (AID 624385); format: functional; conditions: read-out: IC50_Mean
T2 sequence (P61956 whole entry): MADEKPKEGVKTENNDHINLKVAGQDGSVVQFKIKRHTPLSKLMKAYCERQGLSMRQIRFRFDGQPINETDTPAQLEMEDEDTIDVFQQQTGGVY

[5] = molecular target: T3, Small ubiquitin-related modifier 1 (Homo sapiens, UniProt P63165); assay: SUMO1 protein interaction blockers, potency – biochemical, fluorescence polarization, uHTS hits, dose response (AID 624382); format: functional; conditions: read-out: IC50_Mean
T3 sequence (P63165 whole entry): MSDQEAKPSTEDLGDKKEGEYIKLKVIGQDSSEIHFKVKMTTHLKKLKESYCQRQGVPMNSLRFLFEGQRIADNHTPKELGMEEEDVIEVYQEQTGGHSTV

[6] = molecular target: T2, Small ubiquitin-related modifier 2; assay: SUMO2 binding disruption by SUMO1 hits – biochemical, FRET, human SUMO2, uHTS hits, selectivity assay for SUMO1 interaction inhibitor project, dose response (AID 624384); format: functional; conditions: read-out: IC50_Mean
[7] = molecular target: T3, Small ubiquitin-related modifier 1; assay: SUMO1 protein-protein binding blockers, potency – biochemical, FRET, dose response (AID 624383); format: functional; conditions: read-out: IC50_Mean
[8] = molecular target: Hepatocyte nuclear factor 4-alpha (Homo sapiens, UniProt P41235); format: functional, cell-based;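 also: biochemical luminescence-based dose-response counterscreen measuring inhibition of HNF4 dimerization, run alongside a screen for blockers of ABHD5–perilipin-5 interaction; split luciferase complementation of HNF4 fusion proteins in cell lysate measuring dimerization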
Hepatocyte nuclear factor 4-alpha, sequence (P41235 whole entry, the tested form may be a part): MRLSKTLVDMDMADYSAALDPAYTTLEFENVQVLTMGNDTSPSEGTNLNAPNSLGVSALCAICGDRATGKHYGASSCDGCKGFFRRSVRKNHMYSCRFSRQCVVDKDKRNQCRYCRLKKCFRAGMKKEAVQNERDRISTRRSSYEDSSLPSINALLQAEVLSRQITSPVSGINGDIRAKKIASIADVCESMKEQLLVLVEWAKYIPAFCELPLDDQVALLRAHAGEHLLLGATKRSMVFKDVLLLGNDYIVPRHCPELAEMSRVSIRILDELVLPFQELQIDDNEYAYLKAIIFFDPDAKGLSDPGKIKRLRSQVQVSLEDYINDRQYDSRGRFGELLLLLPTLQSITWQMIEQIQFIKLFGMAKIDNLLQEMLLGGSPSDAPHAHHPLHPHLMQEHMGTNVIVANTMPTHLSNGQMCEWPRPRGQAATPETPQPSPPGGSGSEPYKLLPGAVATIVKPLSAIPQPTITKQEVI

[9] = bead-based luminescence quenchers, dual-tagged ARNT – biochemical, AlphaScreen, cherry-pick, artefact control for ARNT-TACC3 interaction inhibitor project, dose response (AID 651705); format: functional;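 also: AlphaScreen bead proximity signal that flags compounds interfering with the detection technology; potency reflects signal decrease which marks the compound as an assay artifact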
Bcl-2-related protein A1 = molecular target: T4, Bcl-2-related protein A1 (Mus musculus, UniProt Q07440); format: functional;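 also: confirmatory dose–response counterscreen on Bfl-1, used to check hits from a UBC13 polyubiquitin inhibitor campaign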
T4 sequence (Q07440 whole entry): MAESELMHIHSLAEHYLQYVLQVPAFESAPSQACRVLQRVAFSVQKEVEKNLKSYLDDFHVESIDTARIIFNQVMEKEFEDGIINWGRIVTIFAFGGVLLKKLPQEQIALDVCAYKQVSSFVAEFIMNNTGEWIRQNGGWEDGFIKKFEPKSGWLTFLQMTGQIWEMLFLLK

[10] = molecular target: T5, Ubiquitin-conjugating enzyme E2 N (Homo sapiens, UniProt P61088); format: functional
T5 sequence (P61088 whole entry): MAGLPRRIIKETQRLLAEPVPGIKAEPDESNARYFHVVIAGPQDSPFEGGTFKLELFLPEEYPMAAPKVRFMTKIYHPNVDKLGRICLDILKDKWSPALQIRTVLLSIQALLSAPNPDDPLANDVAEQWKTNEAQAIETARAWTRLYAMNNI

[11] = molecular target: Intestinal-type alkaline phosphatase (Mus musculus, UniProt P24822); assay: PubChem AID 488785; format: functional
Intestinal-type alkaline phosphatase (Mus musculus, UniProt P24822), sequence (P24822 whole entry): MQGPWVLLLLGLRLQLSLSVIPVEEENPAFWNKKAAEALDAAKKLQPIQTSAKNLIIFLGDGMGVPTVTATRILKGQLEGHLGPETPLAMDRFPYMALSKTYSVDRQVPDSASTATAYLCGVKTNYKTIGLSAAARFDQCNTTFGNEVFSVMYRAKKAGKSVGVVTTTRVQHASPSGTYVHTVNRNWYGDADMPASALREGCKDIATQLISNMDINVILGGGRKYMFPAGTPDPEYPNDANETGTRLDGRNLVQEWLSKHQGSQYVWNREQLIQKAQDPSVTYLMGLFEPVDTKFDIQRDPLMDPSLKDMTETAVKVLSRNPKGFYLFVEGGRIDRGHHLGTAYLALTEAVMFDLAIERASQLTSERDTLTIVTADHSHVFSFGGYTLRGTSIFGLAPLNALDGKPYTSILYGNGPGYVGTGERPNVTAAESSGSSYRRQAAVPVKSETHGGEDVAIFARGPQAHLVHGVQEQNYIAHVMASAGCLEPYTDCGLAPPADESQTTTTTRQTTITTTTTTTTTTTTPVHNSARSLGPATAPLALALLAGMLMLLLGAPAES

[12] = molecular target: T5, Ubiquitin-conjugating enzyme E2 N; format: functional; remark: listed apart in the source
[13] = molecular target: T6, Alkaline phosphatase, tissue-nonspecific isozyme (Homo sapiens, UniProt P05186); assay: TNAP enzyme inhibition by screening hits, dose response, selectivity assay for mouse IAP inhibitor project, biochemical, human TNAP, uHTS hits (AID 488906); format: functional
T6 sequence (P05186 whole entry): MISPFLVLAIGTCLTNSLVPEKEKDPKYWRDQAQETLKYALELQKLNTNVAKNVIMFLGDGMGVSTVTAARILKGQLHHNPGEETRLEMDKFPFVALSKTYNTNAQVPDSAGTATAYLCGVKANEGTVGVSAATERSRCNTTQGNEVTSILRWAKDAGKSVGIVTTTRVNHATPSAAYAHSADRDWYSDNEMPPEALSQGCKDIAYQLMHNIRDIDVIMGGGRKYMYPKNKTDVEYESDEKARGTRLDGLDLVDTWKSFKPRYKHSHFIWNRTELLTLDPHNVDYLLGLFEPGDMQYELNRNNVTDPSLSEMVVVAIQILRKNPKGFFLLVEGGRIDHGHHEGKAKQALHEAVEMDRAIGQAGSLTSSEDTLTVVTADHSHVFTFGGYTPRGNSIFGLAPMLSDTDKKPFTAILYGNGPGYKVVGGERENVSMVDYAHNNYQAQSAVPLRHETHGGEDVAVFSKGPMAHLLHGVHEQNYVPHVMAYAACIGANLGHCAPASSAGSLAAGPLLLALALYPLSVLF

[14] = molecular target: Intestinal-type alkaline phosphatase (Homo sapiens, UniProt P09923); assay: inhibition of human intestinal alkaline phosphatase – biochemical, dose response (AID 488876); format: functional
Intestinal-type alkaline phosphatase (Homo sapiens, UniProt P09923), sequence (P09923 whole entry): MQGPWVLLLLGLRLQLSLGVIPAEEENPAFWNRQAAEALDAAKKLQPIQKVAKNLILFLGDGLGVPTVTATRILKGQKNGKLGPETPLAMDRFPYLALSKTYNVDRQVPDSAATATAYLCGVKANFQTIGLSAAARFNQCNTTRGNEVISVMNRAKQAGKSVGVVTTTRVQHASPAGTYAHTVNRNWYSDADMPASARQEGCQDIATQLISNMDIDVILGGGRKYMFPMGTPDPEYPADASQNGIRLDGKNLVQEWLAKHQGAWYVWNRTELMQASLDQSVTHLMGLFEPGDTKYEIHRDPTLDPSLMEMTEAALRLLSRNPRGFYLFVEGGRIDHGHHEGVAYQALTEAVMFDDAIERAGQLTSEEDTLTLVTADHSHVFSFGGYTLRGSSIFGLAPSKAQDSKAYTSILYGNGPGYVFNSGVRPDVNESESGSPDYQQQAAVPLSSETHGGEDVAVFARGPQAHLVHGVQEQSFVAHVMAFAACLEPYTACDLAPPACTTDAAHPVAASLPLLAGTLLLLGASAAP

Insulin-degrading enzyme [15] = molecular target: T7, Insulin-degrading enzyme (Homo sapiens, UniProt P14735); assay: recombinant IDE activation, cell-free – biochemical, fluorescence polarization, counter-screen for IDE activator project, dose response (AID 588681)
T7 sequence (P14735 whole entry): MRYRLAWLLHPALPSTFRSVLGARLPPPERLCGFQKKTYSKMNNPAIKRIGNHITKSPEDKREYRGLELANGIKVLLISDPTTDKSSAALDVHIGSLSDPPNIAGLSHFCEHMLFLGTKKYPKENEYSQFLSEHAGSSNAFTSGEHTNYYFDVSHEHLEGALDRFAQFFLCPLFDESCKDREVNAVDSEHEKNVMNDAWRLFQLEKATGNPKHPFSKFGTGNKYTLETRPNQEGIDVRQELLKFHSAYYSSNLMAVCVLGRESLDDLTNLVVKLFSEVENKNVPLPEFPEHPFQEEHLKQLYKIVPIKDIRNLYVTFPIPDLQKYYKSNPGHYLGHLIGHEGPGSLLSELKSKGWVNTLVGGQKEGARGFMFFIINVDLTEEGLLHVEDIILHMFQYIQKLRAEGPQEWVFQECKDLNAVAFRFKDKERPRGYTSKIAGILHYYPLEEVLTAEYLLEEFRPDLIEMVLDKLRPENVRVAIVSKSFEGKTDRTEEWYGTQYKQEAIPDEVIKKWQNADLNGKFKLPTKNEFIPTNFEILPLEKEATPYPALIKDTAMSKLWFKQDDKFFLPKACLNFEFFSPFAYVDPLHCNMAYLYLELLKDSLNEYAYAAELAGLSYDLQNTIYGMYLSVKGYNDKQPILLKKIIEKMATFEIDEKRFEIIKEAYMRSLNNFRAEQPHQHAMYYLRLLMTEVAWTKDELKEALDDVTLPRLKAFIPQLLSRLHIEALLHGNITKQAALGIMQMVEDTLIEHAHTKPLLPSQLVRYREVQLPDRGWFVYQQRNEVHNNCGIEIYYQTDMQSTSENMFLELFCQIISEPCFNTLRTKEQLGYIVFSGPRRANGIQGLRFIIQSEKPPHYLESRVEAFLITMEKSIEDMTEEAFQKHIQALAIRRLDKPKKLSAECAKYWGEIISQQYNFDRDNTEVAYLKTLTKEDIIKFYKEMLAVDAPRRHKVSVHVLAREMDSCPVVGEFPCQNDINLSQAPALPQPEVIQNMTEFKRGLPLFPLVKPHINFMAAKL

Insulin-degrading enzyme [16] = molecular target: T7, Insulin-degrading enzyme; assay: cellular IDE activation of Abeta substrate cleavage – fluorescence polarization, HEK cells, dose response (AID 588439); format: functional, cell-based
HEK293 [17] = assay: membrane integrity loss in HEK cells – cell-based, fluorescence, cytotoxicity control for IDE activator project, dose response (AID 588440); format: functional; conditions: Homo sapiens;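 also: cytotoxicity by LDH release measuring loss of membrane integrity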
HEK293 [18] = assay: optical interference in Abeta FP readout, dose response, artefact control for IDE activator project, biochemical, fluorescence polarization (AID 588442); format: functional, cell-based; conditions: Homo sapiens
Melanocortin receptor 4 = Melanocortin receptor 4 (Homo sapiens, UniProt P32245); format: functional, cell-based;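 also: Cell-based assay with luminescence read-out, confirmatory dose-response testing for agonist activity of biased ligands at MC4R; human U2OS cells with tagged receptor and beta-arrestin; potency of agonists that increase receptor coupling to beta-arrestin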
Melanocortin receptor 4, sequence (P32245 whole entry): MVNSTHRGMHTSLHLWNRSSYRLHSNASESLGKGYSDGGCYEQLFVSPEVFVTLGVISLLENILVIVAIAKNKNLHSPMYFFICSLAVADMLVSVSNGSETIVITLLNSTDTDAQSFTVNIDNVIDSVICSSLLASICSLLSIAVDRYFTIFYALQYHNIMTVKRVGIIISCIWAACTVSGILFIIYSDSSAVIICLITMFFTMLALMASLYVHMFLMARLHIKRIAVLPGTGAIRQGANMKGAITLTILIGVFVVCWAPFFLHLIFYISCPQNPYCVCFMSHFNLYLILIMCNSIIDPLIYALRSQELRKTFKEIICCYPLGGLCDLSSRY

Potassium voltage-gated channel subfamily KQT member 2, sequence (O88943 whole entry): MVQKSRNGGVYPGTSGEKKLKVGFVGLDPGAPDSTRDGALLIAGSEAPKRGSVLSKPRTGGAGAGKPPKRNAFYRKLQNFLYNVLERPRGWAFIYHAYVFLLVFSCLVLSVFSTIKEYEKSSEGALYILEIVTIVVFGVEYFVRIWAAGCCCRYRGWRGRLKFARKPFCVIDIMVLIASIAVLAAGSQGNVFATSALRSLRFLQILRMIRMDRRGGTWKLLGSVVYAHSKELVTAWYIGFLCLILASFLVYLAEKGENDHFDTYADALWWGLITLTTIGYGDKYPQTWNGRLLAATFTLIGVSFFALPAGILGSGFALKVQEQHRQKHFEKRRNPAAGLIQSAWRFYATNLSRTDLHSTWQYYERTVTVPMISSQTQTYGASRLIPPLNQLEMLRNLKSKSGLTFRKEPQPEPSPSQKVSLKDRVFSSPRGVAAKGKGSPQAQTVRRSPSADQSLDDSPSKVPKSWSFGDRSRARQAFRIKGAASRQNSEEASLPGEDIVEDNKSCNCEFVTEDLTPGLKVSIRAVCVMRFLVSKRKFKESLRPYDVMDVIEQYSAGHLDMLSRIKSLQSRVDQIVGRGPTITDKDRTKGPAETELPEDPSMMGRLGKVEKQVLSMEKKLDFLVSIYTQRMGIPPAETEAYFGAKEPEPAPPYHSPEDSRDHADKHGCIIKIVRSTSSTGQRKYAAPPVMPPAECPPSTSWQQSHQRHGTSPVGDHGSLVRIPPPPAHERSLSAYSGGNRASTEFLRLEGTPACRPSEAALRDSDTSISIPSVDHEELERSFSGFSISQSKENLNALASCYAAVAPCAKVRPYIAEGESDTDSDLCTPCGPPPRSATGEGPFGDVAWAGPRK

COc1ccccc1CNC(=O)C(CC(C)C)NC(=O)C1CCC(C)CC1 (stereo unspecified)
IC50 [1]: 0.21 µM (active)

O=C(Nc1cc(C(=O)Nc2ccccc2C(=O)O)cc(C(=O)Nc2ccccc2C(=O)O)c1)c1ccccc1
IC50 (Genome polyprotein): 12.7 µM (active)
IC50 [2]: > 47.1 µM (inactive)
EC50 [3]: > 53 µM (inactive)
IC50 [4]: 4.03 µM (active)
IC50 [5]: 1.19 µM (active)
IC50 [6]: 10.7 µM (active)
IC50 [7]: 7.45 µM (active)

CC(C)(C)NC(=O)C(c1cc2ccccc2o1)n1c(=O)c(-c2ccco2)nc2ccccc21 (stereo unspecified)
IC50 [8]: 1.86 µM (active)

COc1ccc(CCNC(=O)C23CCC(C)(C(=O)C2Br)C3(C)C)cc1OC (stereo unspecified)
AC50 [9]: 129 µM (active)

C#CCOCCOCCOCCNc1nc(N2CCN(C(=O)CCCCCCCCCCNC(=O)Cn3cc(CCCCCN)nn3)CC2)nc(N2CCN(C(=O)CCCCCCCCCCNC(=O)[C@@H](CCSC)n3cc(CCO)nn3)CC2)n1
IC50 (Bcl-2-related protein A1): 18.5 µM (active)
IC50 [10]: 6.59 µM (active)
IC50 [11]: 6.92 µM (active)
IC50 [12]: 4.6 µM (active)
IC50 [13]: > 100 µM (inactive)
IC50 [14]: > 100 µM (inactive)
EC50 (Insulin-degrading enzyme [15]): > 54.7 µM (inactive)
EC50 (Insulin-degrading enzyme [16]): > 6.08 µM (active)
IC50 (HEK293 [17]): 14.5 µM (inactive)
EC50 (HEK293 [18]): > 54.7 µM (inactive)

Cc1ccc(C(=O)Nc2nc(C(N)Cc3ccc(C(F)(F)F)cc3)cs2)cc1 (stereo unspecified)
EC50 (Melanocortin receptor 4): > 89.2 µM (inactive)
